Measurements: patent US20140187422A1, “Fungicidal substituted 1--1H-[1,2,4]triazole compounds” (BASF SE, priority 2011, published 2014)
Where two headings read alike, the source gives them in different places.

Assays:
Septoria tritici [1] = experiment: Microtest: activity against leaf blotch on wheat caused by Septoria tritici (Septtr); format: cell-based; conditions: relative growth vs active compound-free control (100%), 7 days after inoculation
Pyriculana oryzae = format: cell-based; conditions: relative growth vs control (100%), 7 days after inoculation
Pyrenophora teres = experiment: Microtiter test: activity against net blotch Pyrenophora teres on barley (Pyrnte); format: cell-based
Procedure: M3 Activity against net blotch Pyrenophora teres on barley in the microtiter test ([…] stock solutions were mixed according to the ratio, pipetted onto a micro titer plate (MTP) and diluted with water to the stated concentrations. A spore suspension of Pyrenophora teres in an aqueous biomalt or yeast-bactopeptone-glycerine solution was then added. The plates were placed in a water vapor-saturated chamber at a temperature of 18° C. Using an absorption photometer, the MTPs were measured at 405 nm 7 days after the inoculation. The measured parameters were compared to the growth of the active compound-free control variant (100%) and the fungus-free and active compound-free blank value to determine the relative growth in % of the pathogens in the respective active compounds.

Septoria tritici [2] = experiment: Green house: curative control of leaf blotch on wheat caused by Septoria tritici (Septtr K7); format: in vivo; conditions: sprayed 7 days after inoculation, % diseased leaf area, untreated control 80
Procedure: The spray solutions were prepared in several steps: The stock solution were prepared: a mixture of acetone and/or dimethylsulfoxide and the wetting agent/emulsifier Wettol, which is based on ethoxylated alkylphenoles, in a relation (volume) solvent-emulsifier of 99 to 1 was added to 25 mg of the compound to give a total of 5 ml. Water was then added to total volume of 100 ml. This stock solution was diluted with the described solvent-emulsifier-water mixture to the given concentration. G1 Curative control of leaf blotch on wheat caused by Septoria tritici (Septtr K7) Leaves of pot-grown wheat seedling were inoculated with an aqueous spore suspension of Septoria tritici. Then the trial plants were immediately transferred to a humid chamber at 18-22° C. and a relative humidity close to 100%. After 4 days the plants were transferred to a chamber with 18-22° C. and a relative humidity close to 70%. Seven days after inoculation the plants were sprayed to run-off with an aqueous suspension of the active compound or their mixture, prepared as described. Then the plants were transferred back to the chamber with 18-22° C. and a relative humidity close to 70%. After 4 weeks the extent of fungal attack on the leaves was visually assessed as % diseased leaf area.

Compound	Growth 0 (%) at 0.002 ppm Septtr (Septoria tritici [1]) [%]	Growth (%) at 2 ppm Pyrior (Pyriculana oryzae) [%]	Growth (%) at 8 ppm Pymte (Pyrenophora teres) [%]	Growth (%) at 0.5 ppm Pyrior (Pyriculana oryzae) [%]	Growth (%) at 8 ppm Pymte (Pyrenophora teres; relative growth vs control (100%), 7 days after inoculation) [%]	Disease (%) at 250 ppm Septtr K7 (Septoria tritici [2]) [%]
COC(Cn1cncn1)c1ccc(Oc2ccc(Cl)cc2)cc1Cl (stereo not shown)	72					
CC(O)(Cn1cncn1)c1ccc(Oc2ccc(Cl)cc2)cc1Cl (stereo not shown)		23	62			
CCC(Cn1cncn1)(OC)c1ccc(Oc2ccc(Cl)cc2)cc1Cl (stereo not shown)			39	47		
COC(Cn1cncn1)(c1ccc(Oc2ccc(Cl)cc2)cc1Cl)C1CC1 (stereo not shown) [I-1, 1-[2-[2-chloro-4-(4-chlorophenoxy)phenyl]-2-cyclopropyl-2-methoxy-ethyl]-1,2,4-triazole]	10	0		21	12	1
